Measured values published in the NIST ThermoML archive (doi:10.1016/j.jct.2007.04.011).

What was measured:
[1] = molar heat capacity at constant pressure; conditions: 101.33 kPa, Liquid
[2] = 298.15 K, 101.33 kPa, Liquid
[3] = xn = mol fraction of the nth substance listed; conditions: 101 kPa, Liquid, Small sample (50 mg) DSC

CCC(O)CO (stereo unspecified) [1,2-butanediol]
[1]
Conditions	molar heat capacity at constant pressure [J/K/mol]
288.15 K	225.51
293.15 K	228.22
298.15 K	230.94
303.15 K	233.64
308.15 K	236.32
313.15 K	238.97
318.15 K	241.59
323.15 K	244.18
328.15 K	246.72
333.15 K	249.2
338.15 K	251.63
343.15 K	254
348.15 K	256.29
353.15 K	258.5
358.15 K	260.63

Conditions	mass density [kg/m3]
[2]	998.408

OCCCCO [1,4-butanediol]
[1]
Conditions	molar heat capacity at constant pressure [J/K/mol]
293.15 K	200.39
298.15 K	203.06
303.15 K	205.82
308.15 K	208.65
313.15 K	211.57
318.15 K	214.55
323.15 K	217.61
328.15 K	220.72
333.15 K	223.9
338.15 K	227.12
343.15 K	230.4
348.15 K	233.72
353.15 K	237.07

Conditions	mass density [kg/m3]
[2]	1012.75

OCCCCO [1,4-butanediol] + CCCCO
excess molar heat capacity [J/K/mol], [3]
Conditions	x1 = 0.0804	x1 = 0.1099	x1 = 0.1826	x1 = 0.2497	x1 = 0.3244	x1 = 0.5919
293.15 K	0.031	0.095	0.129	0.127	0.089	0.005
298.15 K	–	0.096	0.011	0.093	0.016	–
303.15 K	–	0.055	–	0.025	–	–

CC(O)C(C)O (stereo unspecified) [2,3-butanediol]
[1]
Conditions	molar heat capacity at constant pressure [J/K/mol]
298.15 K	236.67
303.15 K	239.28
308.15 K	241.85
313.15 K	244.35
318.15 K	246.82
323.15 K	249.23
328.15 K	251.6
333.15 K	253.91
338.15 K	256.17
343.15 K	258.39
348.15 K	260.55
353.15 K	262.67

Conditions	mass density [kg/m3]
[2]	1000.4

CC(O)CC(C)(C)O (stereo unspecified) [2-methyl-2,4-pentanediol]
Conditions	mass density [kg/m3]	molar heat capacity at constant pressure [J/K/mol]
[1], 298.15 K	–	263.09
[1], 303.15 K	–	267.1
[1], 308.15 K	–	271.31
[1], 313.15 K	–	275.53
[1], 318.15 K	–	279.94
[1], 323.15 K	–	284.5
[1], 328.15 K	–	289.17
[1], 333.15 K	–	293.9
[1], 338.15 K	–	298.68
[1], 343.15 K	–	303.35
[1], 353.15 K	–	313.68
[2], Vibrating tube method	918.22	–

CCCCO [butan-1-ol]
[1]
Conditions	molar heat capacity at constant pressure [J/K/mol]
293.15 K	173.8
298.15 K	177.1
303.15 K	180.61
308.15 K	184.28
313.15 K	188.02
318.15 K	192.1
323.15 K	196.13
328.15 K	200.4
333.15 K	204.72
338.15 K	209.16
343.15 K	213.57
348.15 K	218.1
353.15 K	222.54

Conditions	mass density [kg/m3]
[2]	805.77
